One test addresses T1, CK1α (Homo sapiens, UniProt P48729+Q96SW2).
T1 construct: HEK293 clonal line with CRISPR KI HiBiT tag on CSNK1A1; host or cells: HEK293 clonal line, CRISPR HiBiT knock-in at CSNK1A1, stably expressing LgBiT
Nature of the test: CK1α NanoBiT assay (HiBiT-tagged CSNK1A1 in HEK293 clonal line). The class given is cell-based. Particulars: HEK293 HiBiT-CSNK1A1/LgBiT cells, 24 h incubation, luminescence. The procedure: HEK293 clonal line with CRISPR KI HiBiT tag on CSNK1A1 and stably expressing LgBiT protein was obtained from Promega (Madison, WI). Cells were plated at 5000 cells per well using Multiflo (BioTek) in 384-well white solid bottom plates (Corning, 3570BC) in […] volume in DMEM media (DMEM, high glucose, HEPES, no phenol red (ThermoFisher Scientific, 21063029)) containing 10% FBS (Corning, 35-075-CV), 1% Penicillin/Streptomycin ((ThermoFisher Scientific, 15140-122), and 0.2% Endurazine (Nano-Glo Endurazine Live Cell Substrate (Promega, N2571)). Cells were incubated for 16 hours at 37C, 5% CO2. Depending on experiment 25 or 75 nL of a compound at 10 mM were added into the plate using an Echo®650 liquid handler (Labcyte) to achieve final concentration of […] in wells. Cells were incubated at 37° C., 5% CO2 for 24 hours followed by signal was read on Pherastar FSX using “LUM plus” optic module.
Data analysis was performed using Scinamic (Scinamic, Cambridge, MA).
Luminescence response (R) was calculated by the formula: response=100*(S−N)/(P−N), where S is the signal of the well, N and P the mean negative and positive control values, respectively, of the same plate. The luminescence response was then fitted in Scinamic using a 3-parameter agonist logistic fit (hillslope=1, EC50>0, top/bottom unconstrained).
DC50 data are reported in Table 2 for compounds in Table 1. In Table 2 below, According to the code, A represents a DC50 value of ≤0.1 μM, B represents a DC50 value>0.1 μM and ≤1 μM, C represents an DC50 value>1 μM.
On the technique in general: With HiBiT, luminescence reflects the tagged protein that the partner subunit can reach.

The target in a further test is CRBN/DDB1 (Homo sapiens, UniProt Q96SW2). In words: HTRF binding assay (thalidomide probe displacement from CRBN/DDB1). Particulars: CRBN/DDB1 2.5 nM, Cy5-Thalidomide 100 nM, 30 min; geometric mean; read-out: HTRF_Thali_Disp_DR—geo_IC50. From the text: Binding of test compounds to CRBN/DDB1 was monitored in an HTRF assay using 1-[5-({2-[2-(2-{[2-(2,6-dioxopiperidin-3-yl)-1,3-dioxo-2,3-dihydro-1H-isoindol-4-yl]oxy}acetamido)ethoxy]ethyl}carbamoyl)pentyl]-3,3-dimethyl-2-[(1E,3E)-5-[(2E)-1,3,3-trimethyl-5-sulfo-2,3-dihydro-1H-indol-2-ylidene]penta-1,3-dien-1-yl]-3H-indol-1-ium-5-sulfonate as a fluorescent probe. In this assay, compounds displace the fluorescently labeled thalidomide-based probe bound to CRBN and fluorescence is monitored with increasing compound concentration. Assays were conducted in Greiner white 384 well HiBase plates (Cat. No 784075-25) in 10 μL total volume. A one pot detection solution of CRBN/DDB1 (2.5 nM), anti-His Terbium Cryptate Gold (1×, PerkinElmer Cat. #: 61HI2TLB), and Cy5-Thalidomide (100 nM, Tenova Cat.: T52461) was prepared in 20 mM HEPES, 20 mM NaCl, 0.2 mM TCEP, 0.2 mM EDTA, and 0.005% Tween20 was dispensed to each assay plate. Test compounds were stored in dry, ambient temperatures at 10 mM. A 10-point, 1:3 dilution series was prepared from 10 mM stock concentrations in Echo-compatible LDV plates. 10 nL of each compound dilution series was dispensed into assays wells using an Echo 650 (Labcyte inc. USA). 10 nL of 10 mM lenalidomide (Selleckchem Cat no. S1029) was transferred into the active-control wells for the assay and 10 nL of DMSO was transferred into the negative control wells. The assay was then allowed to incubate for 30 min at ambient temperature after transferring the test compounds. Plate measurements were taken on a Pherastar FSX (BMG Labtech, Germany) using the HTRF Red filter (Ex. 337 nm, eml: 620 nm, em2: 665 nm) (Flashes: 50, Integration time: 60-400 μs, Z-height: 10 mm, Ratio-multiplier: 10,000). Analysis, HTRF ratio and IC50 values were derived using KNIME analytics (KNIME Zurich) transformation and fitting within Collaborative Drug Discovery (Collaborative Drug Discovery USA) using a 4-parameter logistic fit. HTRF ratio calculation was performed using the following formula: […]
Sequence of CRBN/DDB1 (Q96SW2 whole entry): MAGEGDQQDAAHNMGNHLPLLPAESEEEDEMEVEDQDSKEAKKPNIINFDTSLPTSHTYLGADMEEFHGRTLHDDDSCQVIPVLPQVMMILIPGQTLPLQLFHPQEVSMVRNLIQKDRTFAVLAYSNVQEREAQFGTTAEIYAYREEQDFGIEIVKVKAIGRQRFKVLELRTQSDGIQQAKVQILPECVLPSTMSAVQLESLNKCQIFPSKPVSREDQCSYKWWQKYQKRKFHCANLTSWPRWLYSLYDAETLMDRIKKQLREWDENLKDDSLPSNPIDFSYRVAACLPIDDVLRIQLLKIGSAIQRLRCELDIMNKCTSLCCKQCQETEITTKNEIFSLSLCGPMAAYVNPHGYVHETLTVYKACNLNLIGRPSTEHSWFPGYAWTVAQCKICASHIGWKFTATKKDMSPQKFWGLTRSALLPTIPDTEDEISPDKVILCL
Sequence of CRBN/DDB1 (Q16531 whole entry partner): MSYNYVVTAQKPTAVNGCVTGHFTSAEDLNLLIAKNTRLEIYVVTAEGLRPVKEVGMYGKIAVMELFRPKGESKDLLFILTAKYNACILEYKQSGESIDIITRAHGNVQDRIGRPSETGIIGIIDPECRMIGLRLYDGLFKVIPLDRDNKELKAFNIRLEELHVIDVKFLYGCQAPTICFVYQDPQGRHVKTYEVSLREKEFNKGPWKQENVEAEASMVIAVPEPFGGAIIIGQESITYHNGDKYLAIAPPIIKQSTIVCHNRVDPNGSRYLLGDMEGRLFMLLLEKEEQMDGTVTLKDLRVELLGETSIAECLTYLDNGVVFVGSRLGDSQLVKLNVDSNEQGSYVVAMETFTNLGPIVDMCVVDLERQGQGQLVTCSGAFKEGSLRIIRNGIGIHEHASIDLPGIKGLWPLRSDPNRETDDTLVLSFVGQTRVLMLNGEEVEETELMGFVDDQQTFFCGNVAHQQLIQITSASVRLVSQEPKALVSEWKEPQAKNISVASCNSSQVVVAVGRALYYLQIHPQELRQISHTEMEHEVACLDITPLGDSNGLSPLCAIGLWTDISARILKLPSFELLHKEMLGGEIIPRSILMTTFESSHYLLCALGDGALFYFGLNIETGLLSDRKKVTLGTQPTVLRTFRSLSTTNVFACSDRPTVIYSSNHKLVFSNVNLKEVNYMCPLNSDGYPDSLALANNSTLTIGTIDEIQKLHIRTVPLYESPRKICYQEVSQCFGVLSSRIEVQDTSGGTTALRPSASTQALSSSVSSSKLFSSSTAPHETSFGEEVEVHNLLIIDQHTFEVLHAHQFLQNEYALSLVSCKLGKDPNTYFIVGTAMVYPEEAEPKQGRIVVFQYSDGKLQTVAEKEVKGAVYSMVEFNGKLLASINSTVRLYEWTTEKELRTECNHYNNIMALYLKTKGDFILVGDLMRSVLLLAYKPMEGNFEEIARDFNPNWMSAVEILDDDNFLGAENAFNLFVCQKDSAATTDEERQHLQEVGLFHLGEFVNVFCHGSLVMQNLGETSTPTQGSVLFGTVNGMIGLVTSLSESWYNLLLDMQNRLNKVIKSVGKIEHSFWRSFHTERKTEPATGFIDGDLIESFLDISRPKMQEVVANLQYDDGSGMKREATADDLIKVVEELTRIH
where em665nm represents the measured emission at 665 nm upon excitation at 337 nm and em620nm the measured emission at 620 nm upon excitation at 337 nm. The 4 parameter logistic fitting model was performed using the following formula: […]
where Y represents the HTRF ratio response (as defined previously), X the compound concentration in μM, Ymin the minimum response plateau, Ymax the maximum response plateau, IC50 the concentration of agonist that gives a response half way between Ymin and Ymax and HillSlope the steepness of the family of curves. No fitting model constraints was applied on Ymin, or Ymax whilst IC50>0 and −0.5>HillSlope>−3
Ki values were derived from the geometric mean of the IC50 values using the Cheng-Prusoff transformation:
where [L] represents the concentration of fluorescent probe in μM, Kd the affinity (binding constant) of the fluorescent probe in units of μM and IC50 the concentration of agonist that gives a response halfway between Ymin and Ymax (as described in 1.2.1)
Analysis and IC50 values were derived using KNIME analytics (KNIME, Zurich) transformation and fitting within Collaborative Drug Discovery (Collaborative Drug Discovery, USA) as described in 1.2.1. Ki values were derived from the geometric mean of the IC50 values using the Cheng-Prusoff transformation as described in 2.2.2. Data was visualized in GraphPad Prism 8.1.2 (GraphPad, USA) and reported as mean and standard deviation. Microsoft Office Excel 2012 (Redmond, WA) was used for calculation of mean and standard deviation.
IC50 data are reported in Table 3 for compounds in Table 1. In Table 3 below, According to the code, A represents a IC50 value of ≤0.1 μM, B represents a IC50 value≥0.1 μM and ≤1 μM, C represents an IC50 value>1 μM.

Counter-ions that a name gives are not always drawn. Bounds are passed on as bounds.

T1 sequence (P48729 whole entry): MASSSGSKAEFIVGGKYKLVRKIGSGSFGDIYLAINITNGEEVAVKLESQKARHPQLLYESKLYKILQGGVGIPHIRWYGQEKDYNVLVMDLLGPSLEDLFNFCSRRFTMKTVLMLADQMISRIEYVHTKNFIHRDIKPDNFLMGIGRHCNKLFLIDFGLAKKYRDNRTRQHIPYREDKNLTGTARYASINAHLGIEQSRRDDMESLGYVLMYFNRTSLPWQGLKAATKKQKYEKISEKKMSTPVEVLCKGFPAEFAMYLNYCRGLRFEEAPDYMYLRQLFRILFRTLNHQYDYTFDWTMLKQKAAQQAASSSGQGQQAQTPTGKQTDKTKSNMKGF
T1 sequence (Q96SW2 whole entry): as the sequence (Q96SW2 whole entry) above
T1 sequence (Q16531 2-1140 partner limits assumed): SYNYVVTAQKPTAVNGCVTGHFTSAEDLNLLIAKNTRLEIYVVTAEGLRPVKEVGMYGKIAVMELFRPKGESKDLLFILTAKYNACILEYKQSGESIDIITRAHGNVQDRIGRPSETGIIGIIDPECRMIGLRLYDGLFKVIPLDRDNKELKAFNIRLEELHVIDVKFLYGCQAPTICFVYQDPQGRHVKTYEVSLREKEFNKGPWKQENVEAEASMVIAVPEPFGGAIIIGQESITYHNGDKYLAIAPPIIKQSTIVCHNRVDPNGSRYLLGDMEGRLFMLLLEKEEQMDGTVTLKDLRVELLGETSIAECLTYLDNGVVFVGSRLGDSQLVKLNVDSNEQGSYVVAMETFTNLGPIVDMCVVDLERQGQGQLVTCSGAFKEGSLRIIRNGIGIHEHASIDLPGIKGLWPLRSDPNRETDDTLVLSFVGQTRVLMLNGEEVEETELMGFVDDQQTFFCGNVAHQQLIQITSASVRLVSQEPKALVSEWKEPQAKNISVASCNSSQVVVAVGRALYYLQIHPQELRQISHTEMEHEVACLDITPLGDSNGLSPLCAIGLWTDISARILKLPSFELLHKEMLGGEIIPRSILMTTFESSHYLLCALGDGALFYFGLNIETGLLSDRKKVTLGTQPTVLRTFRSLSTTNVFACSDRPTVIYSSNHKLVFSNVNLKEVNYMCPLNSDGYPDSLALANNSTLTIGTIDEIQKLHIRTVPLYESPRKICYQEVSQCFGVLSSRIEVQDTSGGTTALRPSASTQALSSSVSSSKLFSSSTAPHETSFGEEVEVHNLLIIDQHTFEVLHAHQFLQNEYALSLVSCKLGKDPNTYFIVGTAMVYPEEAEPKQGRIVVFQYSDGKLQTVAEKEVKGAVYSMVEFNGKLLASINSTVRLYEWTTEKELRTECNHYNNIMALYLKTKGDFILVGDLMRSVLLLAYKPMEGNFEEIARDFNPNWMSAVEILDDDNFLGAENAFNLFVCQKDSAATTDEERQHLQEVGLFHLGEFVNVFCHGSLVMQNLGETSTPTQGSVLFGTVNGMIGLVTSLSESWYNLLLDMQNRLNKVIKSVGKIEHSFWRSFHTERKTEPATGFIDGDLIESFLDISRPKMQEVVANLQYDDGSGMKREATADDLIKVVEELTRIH

The compound `O=C1CCC(N2Cc3cc(NC(=O)C4CC(c5ccccc5)C4)ccc3C2=O)C(=O)N1` (stereo not shown) [Compound 117, N-(2-(2,6-dioxopiperidin-3-yl)-1-oxoisoindolin-5-yl)-3-phenylcyclobutanecarboxamide] gave a DC50 at CK1α below 0.1 µM. Moreover, the IC50 on CRBN/DDB1 was 100 to 1000 nM.
For `N#Cc1ccccc1C(=O)Nc1ccc2c(c1)CN(C1CCC(=O)NC1=O)C2=O` (stereo not shown) [Compound 118, 2-cyano-N-(2-(2,6-dioxopiperidin-3-yl)-1-oxoisoindolin-5-yl)benzamide], in that order: above 1 µM and 100 to 1000 nM.
Taken in the same sequence, the figures for `Cn1ccnc1C(=O)Nc1ccc2c(c1)CN(C1CCC(=O)NC1=O)C2=O` (stereo not shown) [Compound 119, N-(2-(2,6-dioxopiperidin-3-yl)-1-oxoisoindolin-5-yl)-1-methyl-1H-imidazole-2-carboxamide] were above 1 µM and 100 to 1000 nM.
Taken in the same sequence, the figures for `O=C1CCC(N2Cc3cc(NC(=O)c4ncco4)ccc3C2=O)C(=O)N1` (stereo not shown) [Compound 120, N-(2-(2,6-dioxopiperidin-3-yl)-1-oxoisoindolin-5-yl)oxazole-2-carboxamide] were below 0.1 µM and 100 to 1000 nM.
`O=C1CCC(N2Cc3cc(NC(=O)c4ccc(Cl)c(F)c4)ccc3C2=O)C(=O)N1` (stereo not shown) [Compound 121, 4-chloro-N-(2-(2,6-dioxopiperidin-3-yl)-1-oxoisoindolin-5-yl)-3-fluorobenzamide] displayed a DC50 at CK1α below 0.1 µM. At CRBN/DDB1, the IC50 fell in the range of 100 to 1000 nM.
Turning to `O=C1CCC(N2Cc3cc(NC(=O)c4ccc(C(F)(F)F)cc4)ccc3C2=O)C(=O)N1` (stereo not shown) [Compound 122, N-(2-(2,6-dioxopiperidin-3-yl)-1-oxoisoindolin-5-yl)-4-(trifluoromethyl)benzamide], the DC50 on CK1α is below 0.1 µM. The IC50 at CRBN/DDB1 lay within 100 to 1000 nM.
Taken in the same sequence, the figures for `Cc1ccc(C(=O)Nc2ccc3c(c2)CN(C2CCC(=O)NC2=O)C3=O)cn1` (stereo not shown) [Compound 123, N-(2-(2,6-dioxopiperidin-3-yl)-1-oxoisoindolin-5-yl)-6-methylnicotinamide] were 0.1 to 1 µM and 100 to 1000 nM.
Taken in the same sequence, the figures for `O=C1CCC(N2Cc3cc(NC(=O)c4cccc5c4CC(=O)N5)ccc3C2=O)C(=O)N1` (stereo not shown) [Compound 124, N-(2-(2,6-dioxopiperidin-3-yl)-1-oxoisoindolin-5-yl)-2-oxoindoline-4-carboxamide] were 0.1 to 1 µM and at most 100 nM.
Regarding `O=C1CCC(N2Cc3cc(NC(=O)c4cccc(C(F)(F)F)c4)ccc3C2=O)C(=O)N1` (stereo not shown) [Compound 125, N-(2-(2,6-dioxopiperidin-3-yl)-1-oxoisoindolin-5-yl)-3-(trifluoromethyl)benzamide], the DC50 at CK1α was below 0.1 µM. Further, on CRBN/DDB1, the IC50 was 100 to 1000 nM.
For `O=C1CCC(N2Cc3cc(NC(=O)c4ccc(F)cc4)ccc3C2=O)C(=O)N1` (stereo not shown) [Compound 126, N-(2-(2,6-dioxopiperidin-3-yl)-1-oxoisoindolin-5-yl)-4-fluorobenzamide], in that order: below 0.1 µM and 100 to 1000 nM.
For `Cc1ccc(C(=O)Nc2ccc3c(c2)CN(C2CCC(=O)NC2=O)C3=O)cc1` (stereo not shown) [Compound 127, N-(2-(2,6-dioxopiperidin-3-yl)-1-oxoisoindolin-5-yl)-4-methylbenzamide], in that order: below 0.1 µM and 100 to 1000 nM.
For the compound `O=C1CCC(N2Cc3cc(NC(=O)c4ccccc4C4CCCC4)ccc3C2=O)C(=O)N1` (stereo not shown) [Compound 128, 2-cyclopentyl-N-(2-(2,6-dioxopiperidin-3-yl)-1-oxoisoindolin-5-yl)benzamide formate], the DC50 at CK1α was above 1 µM. Besides, on CRBN/DDB1, the IC50 lay within 100 to 1000 nM.
`O=C1CCC(N2Cc3cc(NC(=O)c4cccc5c4CCC5)ccc3C2=O)C(=O)N1` (stereo not shown) [Compound 129, N-(2-(2,6-dioxopiperidin-3-yl)-1-oxoisoindolin-5-yl)-2,3-dihydro-1H-indene-4-carboxamide] yielded a DC50 on CK1α below 0.1 µM. The IC50 on CRBN/DDB1 lay within 100 to 1000 nM.
Taken in the same sequence, the figures for `N#Cc1ccc(C(=O)Nc2ccc3c(c2)CN(C2CCC(=O)NC2=O)C3=O)cc1` (stereo not shown) [Compound 130, 4-cyano-N-(2-(2,6-dioxopiperidin-3-yl)-1-oxoisoindolin-5-yl)benzamide] were 0.1 to 1 µM and 100 to 1000 nM.
For `O=C1CCC(N2Cc3cc(NC(=O)c4ccc(Cl)cc4F)ccc3C2=O)C(=O)N1` (stereo not shown) [Compound 131, 4-chloro-N-(2-(2,6-dioxopiperidin-3-yl)-1-oxoisoindolin-5-yl)-2-fluorobenzamide], in that order: below 0.1 µM and 100 to 1000 nM.
Taken in the same sequence, the figures for `Cc1ccccc1C(=O)Nc1ccc2c(c1)CN(C1CCC(=O)NC1=O)C2=O` (stereo not shown) [Compound 132, N-(2-(2,6-dioxo-3-piperidyl)-1-oxo-isoindolin-5-yl)-2-methyl-benzamide] were 0.1 to 1 µM and 100 to 1000 nM.
For the compound `O=C1CCC(N2Cc3cc(NC(=O)c4ccccn4)ccc3C2=O)C(=O)N1` (stereo not shown) [Compound 133, N-(2-(2,6-dioxopiperidin-3-yl)-1-oxoisoindolin-5-yl)], on CK1α, the DC50 lay in the range of 0.1 to 1 µM. In addition, the IC50 on CRBN/DDB1 was in the range of 100 to 1000 nM.
In turn, `CC(C)Cc1ccccc1C(=O)Nc1ccc2c(c1)CN(C1CCC(=O)NC1=O)C2=O` (stereo not shown) [Compound 134, N-(2-(2,6-dioxopiperidin-3-yl)-1-oxoisoindolin-5-yl)-2-isobutylbenzamide] registered a DC50 on CK1α of 0.1 to 1 µM. Further, on CRBN/DDB1, the IC50 fell in the range of 100 to 1000 nM.
For `N#Cc1cccc(C(=O)Nc2ccc3c(c2)CN(C2CCC(=O)NC2=O)C3=O)c1` (stereo not shown) [Compound 136, 3-cyano-N-(2-(2,6-dioxopiperidin-3-yl)-1-oxoisoindolin-5-yl) benzamide], on CK1α, the DC50 was in the range of 0.1 to 1 µM. Moreover, the IC50 on CRBN/DDB1 lay within 100 to 1000 nM.
In turn, `O=C1CCC(N2Cc3cc(NC(=O)c4ccccc4C(F)(F)F)ccc3C2=O)C(=O)N1` (stereo not shown) [Compound 137, N-(2-(2,6-dioxopiperidin-3-yl)-1-oxoisoindolin-5-yl)-2-(trifluoromethyl)benzamide] yielded a DC50 at CK1α below 0.1 µM. For the same compound, on CRBN/DDB1, the IC50 is 100 to 1000 nM.

These data come from US20250115582A1, “MOLECULAR GLUE DEGRADERS AND METHODS OF USING THE SAME” (Monte Rosa Therapeutics, Inc., priority 2022, published 2025).
